Measured values as given in ChEMBL document CHEMBL4602723, “Stalobacin: Discovery of Novel Lipopeptide Antibiotics with Potent Antibacterial Activity against Multidrug-Resistant Bacteria” (J Med Chem, 2020).
In brackets after ≈: the same amount, converted by molar mass. Activity calls are given as the source filed them. The rule behind the calls is not given here.

Experiments:
[1] = tested on: Staphylococcus aureus; assay: Induction of morphological changes in Staphylococcus aureus RN4220 assessed as inflation of bacterial cell body; type: functional, organism-based
[2] = tested on: Enterococcus faecalis; assay: Antibacterial activity against Vancomycin-resistant Enterococcus faecalis SR7914 (VanA) assessed as inhibition of bacterial growth incubated for 20 hrs by microdilution broth method; type: functional; settings: SR7914, 20 h
[3] = tested on: Streptococcus pneumoniae; assay: Antibacterial activity against Streptococcus pneumoniae type 1 assessed as inhibition of bacterial growth incubated for 20 hrs by microdilution broth method; type: functional; settings: type 1, 20 h
[4] = tested on: Streptococcus pneumoniae; assay: Antibacterial activity against Streptococcus pneumoniae tupelo (VTSP) assessed as inhibition of bacterial growth incubated for 20 hrs by microdilution broth method; type: functional
[5] = tested on: Staphylococcus aureus; assay: Potency index, ratio of MIC for telavancin to MIC for test compound for antibacterial activity against methicillin-resistant Staphylococcus aureus SR3637; type: functional
[6] = tested on: Enterococcus faecalis; assay: Antibacterial activity against Vancomycin-resistant Enterococcus faecalis SR23630 (VanB) assessed as inhibition of bacterial growth incubated for 20 hrs by microdilution broth method; type: functional; settings: SR23630, 20 h
[7] = tested on: L1210; assay: Cytotoxicity in mouse L1210 cells assessed as reduction in cell viability; type: cell-based
[8] = tested on: Streptococcus pneumoniae; assay: Antibacterial activity against Streptococcus pneumoniae SR11031 (PRSP) assessed as inhibition of bacterial growth incubated for 20 hrs by microdilution broth method; type: functional; settings: SR11031, 20 h
[9] = tested on: Enterococcus faecium; assay: Antibacterial activity against Vancomycin-resistant Enterococcus faecium SR23598 (VanB) assessed as inhibition of bacterial growth incubated for 20 hrs by microdilution broth method; type: functional; settings: SR23598, 20 h
[10] = tested on: Staphylococcus aureus; assay: Antibacterial activity against methicillin-resistant Staphylococcus aureus SR3637 assessed as inhibition of bacterial growth incubated for 20 hrs by microdilution broth method; type: functional; settings: SR3637, 20 h
[11] = tested on: Enterococcus faecium; assay: Antibacterial activity against Vancomycin-resistant Enterococcus faecium SRM1101 (c_VanB) assessed as inhibition of bacterial growth incubated for 20 hrs by microdilution broth method; type: functional; settings: SRM1101, 20 h
[12] = tested on: Staphylococcus aureus; assay: Antibacterial activity against Staphylococcus aureus RN4220 assessed as inhibition of bacterial growth incubated for 20 hrs by microdilution broth method; type: functional; settings: RN4220, 20 h
[13] = tested on: Staphylococcus aureus; assay: Potency index, ratio of MIC for vancomycin to MIC for test compound for antibacterial activity against methicillin-resistant Staphylococcus aureus SR3637; type: functional
[14] = tested on: Staphylococcus aureus; assay: Antibacterial activity against Staphylococcus aureus SMITH assessed as inhibition of bacterial growth incubated for 20 hrs by microdilution broth method; type: functional
[15] = tested on: Escherichia coli; assay: Antibacterial activity against Escherichia coli JC2 assessed as inhibition of bacterial growth incubated for 20 hrs by microdilution broth method; type: functional; settings: JC2, 20 h
[16] = tested on: Enterococcus faecium; assay: Antibacterial activity against Vancomycin-resistant Enterococcus faecium SR7940 (VanA) assessed as inhibition of bacterial growth incubated for 20 hrs by microdilution broth method; type: functional; settings: SR7940, 20 h
[17] = tested on: Enterococcus faecalis; assay: Antibacterial activity against Enterococcus faecalis SR1004 assessed as inhibition of bacterial growth incubated for 20 hrs by microdilution broth method; type: functional; settings: SR1004, 20 h
[18] = tested on: Staphylococcus aureus; assay: Antibacterial activity against Vancomycin-resistant Staphylococcus aureus HIP11983 assessed as inhibition of bacterial growth incubated for 20 hrs by microdilution broth method; type: functional; settings: HIP11983, 20 h
[19] = tested on: Enterococcus faecium; assay: Antibacterial activity against Enterococcus faecium SR16972 assessed as inhibition of bacterial growth incubated for 20 hrs by microdilution broth method; type: functional; settings: SR16972, 20 h
[20] = tested on: Staphylococcus aureus; assay: Potency index, ratio of MIC for linezolid to MIC for test compound for antibacterial activity against methicillin-resistant Staphylococcus aureus SR3637; type: functional
[21] = tested on: Escherichia coli; assay: Induction of morphological changes in Escherichia coli JC2 assessed as inflation of bacterial cell body; type: functional, organism-based
[22] = tested on: P388; assay: Cytotoxicity in mouse P388 cells assessed as reduction in cell viability; type: cell-based
[23] = tested on: Staphylococcus aureus; assay: Antibacterial activity against Vancomycin-resistant Staphylococcus aureus HIP11714 assessed as inhibition of bacterial growth incubated for 20 hrs by microdilution broth method; type: functional; settings: HIP11714, 20 h
[24] = tested on: Klebsiella pneumoniae; assay: Antibacterial activity against Klebsiella pneumoniae SR1 assessed as inhibition of bacterial growth incubated for 20 hrs by microdilution broth method; type: functional; settings: SR1, 20 h

Compound | MIC [2] | MIC [3] | MIC [4] | MIC [6] | MIC [8] | MIC [9] | MIC [10] | MIC [11] | MIC [12] | MIC [14] | MIC [15] | MIC [16] | MIC [17] | MIC [18] | MIC [19] | MIC [23] | MIC [24] | other results
CCCCCC/C=C\CCCCC[C@@H]1C[C@H]1/C=C/C(O)C(=O)N[C@H](C(=O)N(C)[C@@H](CC(=O)O)C(=O)N(COC(C)(CC)C(NC(=O)C(NC(=O)[C@@H](N)CC(=O)O)C(O)C(O)CNC(=N)N)C(=O)NCC(=O)N[C@@H](CO)C(=O)O)[C@@]12C[C@@H]1CN(C(=N)N)C2=O)[C@H](O)C(=O)O (stereo partly drawn) | 0.016 µg/mL (≈ 0.0121 µM) | ≤ 0.004 µg/mL | ≤ 0.004 µg/mL | 0.004 µg/mL (≈ 0.00302 µM) | ≤ 0.004 µg/mL | 0.004 µg/mL (≈ 0.00302 µM) | 0.008 µg/mL (≈ 0.00604 µM) | 0.004 µg/mL (≈ 0.00302 µM) | 0.004 µg/mL (≈ 0.00302 µM) | 0.004 µg/mL (≈ 0.00302 µM) | 4 µg/mL (≈ 3.02 µM) | 0.004 µg/mL (≈ 0.00302 µM) | 0.008 µg/mL (≈ 0.00604 µM) | 0.004 µg/mL (≈ 0.00302 µM) | 0.004 µg/mL (≈ 0.00302 µM) | 0.004 µg/mL (≈ 0.00302 µM) | 1 µg/mL (≈ 0.754 µM) | Activity [1]: Active; Ratio [5]: 125 - 250; IC50 [7]: > 12.5 µg/mL; Ratio [13]: 125 - 250; Ratio [20]: 125 - 250; Activity [21]: Active; IC50 [22]: > 12.5 µg/mL
CC(=O)NC[C@H]1CN(c2ccc(N3CCOCC3)c(F)c2)C(=O)O1 [LINEZOLID] |  |  |  |  |  | 2 µg/mL (≈ 5.93 µM) |  | 2 µg/mL (≈ 5.93 µM) |  |  |  | 2 µg/mL (≈ 5.93 µM) |  |  | 2 µg/mL (≈ 5.93 µM) |  |  | 
CN[C@H](CC(C)C)C(=O)N[C@H]1C(=O)N[C@@H](CC(N)=O)C(=O)N[C@H]2C(=O)N[C@H]3C(=O)N[C@H](C(=O)N[C@H](C(=O)O)c4cc(O)cc(O)c4-c4cc3ccc4O)[C@H](O)c3ccc(c(Cl)c3)Oc3cc2cc(c3O[C@@H]2O[C@H](CO)[C@@H](O)[C@H](O)[C@H]2O[C@H]2C[C@](C)(N)[C@H](O)[C@H](C)O2)Oc2ccc(cc2Cl)[C@H]1O [VANCOMYCIN] | > 64 µg/mL | 0.5 µg/mL (≈ 0.345 µM) | 0.25 µg/mL (≈ 0.173 µM) | 32 µg/mL (≈ 22.1 µM) | 0.25 µg/mL (≈ 0.173 µM) | > 64 µg/mL |  | > 64 µg/mL |  |  | > 64 µg/mL | > 64 µg/mL | 1 µg/mL (≈ 0.69 µM) | > 64 µg/mL |  | > 64 µg/mL | > 64 µg/mL | 
CCCCCCCCCCNCCN[C@@]1(C)C[C@H](O[C@H]2[C@H](Oc3c4cc5cc3Oc3ccc(cc3Cl)[C@@H](O)[C@@H](NC(=O)[C@@H](CC(C)C)NC)C(=O)N[C@@H](CC(N)=O)C(=O)N[C@H]5C(=O)N[C@H]3C(=O)N[C@H](C(=O)N[C@H](C(=O)O)c5cc(O)c(CNCP(=O)(O)O)c(O)c5-c5cc3ccc5O)[C@H](O)c3ccc(c(Cl)c3)O4)O[C@H](CO)[C@@H](O)[C@@H]2O)O[C@@H](C)[C@H]1O [TELAVANCIN] | 4 µg/mL (≈ 2.28 µM) | ≤ 0.063 µg/mL | ≤ 0.063 µg/mL | 1 µg/mL (≈ 0.57 µM) | ≤ 0.063 µg/mL | 0.5 µg/mL (≈ 0.285 µM) | 1 µg/mL (≈ 0.57 µM) | 8 µg/mL (≈ 4.56 µM) | 0.5 µg/mL (≈ 0.285 µM) | 0.5 µg/mL (≈ 0.285 µM) |  | 8 µg/mL (≈ 4.56 µM) | 1 µg/mL (≈ 0.57 µM) | 4 µg/mL (≈ 2.28 µM) | 0.5 µg/mL (≈ 0.285 µM) | 4 µg/mL (≈ 2.28 µM) |  | 
CCCCCC/C=C\CCCCC[C@@H]1C[C@H]1/C=C/C(O)C(=O)N[C@H](C(=O)N(C)[C@@H](CC(=O)O)C(=O)N(COC(C)(CC)C(NC(=O)C(NC(=O)[C@@H](N)CC(=O)O)C(O)C(O)CNC(=N)N)C(=O)NCC(=O)N[C@@H](CO)C(=O)O)[C@@]12C[C@@H]1CNC2=O)[C@H](O)C(=O)O (stereo partly drawn) | > 64 µg/mL | 0.25 µg/mL (≈ 0.195 µM) | ≤ 0.004 µg/mL | > 64 µg/mL | 0.25 µg/mL (≈ 0.195 µM) | 1 µg/mL (≈ 0.779 µM) | 1 µg/mL (≈ 0.779 µM) | 1 µg/mL (≈ 0.779 µM) | 0.5 µg/mL (≈ 0.39 µM) | 0.5 µg/mL (≈ 0.39 µM) | 4 µg/mL (≈ 3.12 µM) | 2 µg/mL (≈ 1.56 µM) | > 64 µg/mL | 1 µg/mL (≈ 0.779 µM) | 4 µg/mL (≈ 3.12 µM) | 0.5 µg/mL (≈ 0.39 µM) | 2 µg/mL (≈ 1.56 µM) | 
